Measured values published in ChEMBL document CHEMBL1129141, “Synthesis, characterization, and anti-HIV activity of some 2-p-X-phenyl-1,3-N,N-diphenyl-amidines” (Bioorg Med Chem Lett, 1996).
pEC50: −log10 of the molar value.

Key:
[1] = Compound was tested for the drug concentration which reduces the viability of uninfected C8166 cells by 50%; format: cell-based; conditions: human, read-out: TC50 (the source's name)
[2] = SI (selectivity index) is the ratio of TC50 to EC50; format: functional
[3] = test system: Human immunodeficiency virus 1; assay: Compound was tested for the drug concentration which reduces viral antigen production by 50%; format: functional, organism-based

With `Cc1cn([C@H]2C[C@H](N=[N+]=[N-])[C@@H](CO)O2)c(=O)[nH]c1=O` [ZIDOVUDINE] the CC50 [1] was > 1000 µM, the SI [2] was > 6 and the pEC50 [3] was 7.80.

For `Cc1ccc(/C(=N/c2ccccc2)Nc2ccccc2)cc1`, the CC50 [1] was > 500 µM, the SI [2] was < 1 and the pEC50 [3] was < 3.30.

For `COc1ccc(/C(=N/c2ccccc2)Nc2ccccc2)cc1`, the CC50 [1] was 80 µM, the SI [2] was < 1 and the pEC50 [3] was < 4.10.

With `c1ccc(/N=C(\Nc2ccccc2)c2ccccc2)cc1` the CC50 [1] was 400 µM, the SI [2] was < 1 and the pEC50 [3] was < 3.40.

Work on `O=[N+]([O-])c1ccc(/C(=N/c2ccccc2)Nc2ccccc2)cc1` yielded a CC50 [1] of 80 µM, an SI [2] of 4 and a pEC50 [3] of 4.70.

For `Brc1ccc(/C(=N/c2ccccc2)Nc2ccccc2)cc1`, the CC50 [1] was 200 µM, the SI [2] was 2 and the pEC50 [3] was 4.00.

`Clc1ccc(/C(=N/c2ccccc2)Nc2ccccc2)cc1` showed a CC50 [1] of 1000 µM, an SI [2] of 125 and a pEC50 [3] of 5.10.
